Laboratory results as given in patent publication US20250082624A1, “METHODS OF TREATING COGNITIVE IMPAIRMENT” (NeuroTherapia, Inc., priority 2023, published 2025).
Where two headings read alike, the source gives them in different places.

Assay: Phase 1b MAD plasma pharmacokinetics, non-compartmental analysis
Format: in vivo, human
Details: human, plasma, po
Text: Methods: All study procedures were approved by the IRB, and informed consent was obtained. Three cohorts of volunteers 45-80 years of age with well-controlled comorbidities (NOAD) and one cohort of AD patients diagnosed with cognitive impairment consistent with prodromal AD per International Working Group criteria or mild AD per National Institute on Aging—Alzheimer's Association criteria (n=6 active, 2 placebo per cohort) were enrolled. Participants were admitted to the study site for the duration of the dosing and returned 7-12 days after the last dose for a safety visit. Participants received NTRX-07 (10, 30, or 90 mg) or a placebo in a double-blinded randomization orally once daily for seven days. Subjects were assessed for changes in vital signs, including maneuvers to induce lightheadedness, electrocardiograms, 24-hour electroencephalograms (EEG), and safety laboratory studies. The second cohort returned and received a single repeat dose after a standard high-fat meal. The AD cohort also underwent cognitive testing and had blood samples for biomarkers drawn. Subjects had PK sampling done after the first and final dose of the study drug. An independent safety review committee conducted a blinded safety review of adverse events and plasma levels between each cohort.
All subjects had PK sampling done after the first and final dose of the study drug.
Raw bioanalytical data were received from Nuvisan following analysis of plasma samples from each of four cohorts. PK parameters were calculated by noncompartmental analysis using standard equations. Specifically, area under the plasma concentration versus time curve (AUC) was calculated using the trapezoid rule. Maximal plasma concentration (Cmax) and time of maximal plasma concentration (Tmax) were taken directly from the data. Clearance divided by bioavailability (Cl/F) was calculated as the dose divided by the AUC. Apparent volume of distribution over bioavailability (Vd/F) was calculated as dose divided by Cmax.
With oral administration of the dose every 24 hours for 7 days, blood samples were taken over a 24-hour interval on Days 1 and 7 and before and after dosing on Day 3.
Raw bioanalytical data were received from Nuvisan on Oct. 27, 2022. […] Specifically, area under the plasma concentration versus time curve (AUC) was calculated using the trapezoid rule. Maximal plasma concentration (Cmax) and time of maximal plasma concentration (Tmax) were taken directly from the data. Clearance divided by bioavailability (Cl/F) was calculated as the dose divided by the AUC. Apparent volume of distribution over bioavailability (Vd/F) was calculated as dose divided by Cmax.
Raw bioanalytical data were received from Nuvisan on Nov. 24, 2022. […] Specifically, area under the plasma concentration versus time curve (AUC) was calculated using the trapezoid rule. Maximal plasma concentration (Cmax) and time of maximal plasma concentration (Tmax) were taken directly from the data. Clearance divided by bioavailability (Cl/F) was calculated as the dose divided by the AUC. Apparent volume of distribution over bioavailability (Vd/F) was calculated as dose divided by Cmax.
Raw bioanalytical data were received from Nuvisan on Dec. 19, 2022. […] Specifically, area under the plasma concentration versus time curve (AUC) was calculated using the trapezoid rule. Maximal plasma concentration (Cmax) and time of maximal plasma concentration (Tmax) were taken directly from the data. Clearance divided by bioavailability (Cl/F) was calculated as the dose divided by the AUC. Apparent volume of distribution over bioavailability (Vd/F) was calculated as dose divided by Cmax.
Raw bioanalytical data were received from Nuvisan on Jun. 30, 2023. […] Specifically, area under the plasma concentration versus time curve (AUC) was calculated using the trapezoid rule. Maximal plasma concentration (Cmax) and time of maximal plasma concentration (Tmax) were taken directly from the data. […]

Work on `CC1(Cc2ccccc2)COc2cc(C(=O)N3CCCCC3)ccc21` (centres unmarked) [NTRX-07, 3-benzyl-3-methyl-2,3-dihydrobenzofuran-6-carboxylic acid-piperidine amide] yielded a Cmax (10 mg, Table 10: Cohort A, 10 mg QD oral, Day 7, mean ± S.D., read-out: Cmax) of 37.7 ± 15.9 ng/mL, a Tmax (10 mg, Table 10: Cohort A, 10 mg QD oral, Day 7, mean ± S.D., read-out: Tmax) of 48 ± 18 min and a Vd/F (10 mg, Table 10: Cohort A, 10 mg QD oral, Day 7, mean ± S.D., read-out: Vd/F) of 307 ± 126 L. For the same compound, the Tmax (10 mg, Table 19 (interim): Cohort A, 40 mg SDD (10 mg NTRX-07) QD oral, Day 1, individual subjects, read-out: Tmax) was 30 min, the AUC over 24 h (AUC0-24) (10 mg, Table 19 (interim): Cohort A, 40 mg SDD (10 mg NTRX-07) QD oral, Day 1, mean ± S.D.) was 93 ± 0.9 ng·h/mL and the Cmax (10 mg, Table 19 (interim): Cohort A, 40 mg SDD (10 mg NTRX-07) QD oral, Day 1, mean ± S.D., read-out: Cmax) was 35.6 ± 12.8 ng/mL. It also gave a Tmax (10 mg, Table 19 (interim): Cohort A, 40 mg SDD (10 mg NTRX-07) QD oral, Day 1, mean ± S.D., read-out: Tmax) of 42 ± 18 min, a Vd/F (10 mg, Table 19 (interim): Cohort A, 40 mg SDD (10 mg NTRX-07) QD oral, Day 1, mean ± S.D., read-out: Vd/F) of 1280 ± 544 L and a Tmax (10 mg, Table 20 (interim): Cohort A, 40 mg SDD (10 mg NTRX-07) QD oral, Day 7, individual subjects, read-out: Tmax) of 30 min. The AUC over 24 h (AUC0-24) (10 mg, Table 20 (interim): Cohort A, 40 mg SDD (10 mg NTRX-07) QD oral, Day 7, mean ± S.D.) was 94.4 ± 66.8 ng·h/mL, the Cmax (10 mg, Table 20 (interim): Cohort A, 40 mg SDD (10 mg NTRX-07) QD oral, Day 7, mean ± S.D., read-out: Cmax) was 37.7 ± 15.9 ng/mL and the Tmax (10 mg, Table 20 (interim): Cohort A, 40 mg SDD (10 mg NTRX-07) QD oral, Day 7, mean ± S.D., read-out: Tmax) was 48 ± 18 min. For the same compound, the Vd/F (10 mg, Table 20 (interim): Cohort A, 40 mg SDD (10 mg NTRX-07) QD oral, Day 7, mean ± S.D., read-out: Vd/F) was 1230 ± 506 L, the AUC(0-t) (30 mg, Cohort B Fed, single 30 mg oral dose after high-fat meal, mean ± SD, read-out: Average of AUC24 h) was 390 ± 280 ng·h/mL and the Cmax (30 mg, Cohort B Fed, single 30 mg oral dose after high-fat meal, mean ± SD, read-out: Average of Cmax) was 60 ± 37 ng/mL. The Tmax (30 mg, Cohort B Fed, single 30 mg oral dose after high-fat meal, mean ± SD, read-out: Average of Tmax) was 144 ± 108 min, the Vd/F (30 mg, Cohort B Fed, single 30 mg oral dose after high-fat meal, mean ± SD, read-out: Average of Vd/F) was 699 ± 424 L and the AUC(0-t) (30 mg, Cohort B healthy, 30 mg QD oral, Day 1, mean ± SD, read-out: Average of AUC24 h) was 328 ± 213 ng·h/mL. The Cmax (30 mg, Cohort B healthy, 30 mg QD oral, Day 1, mean ± SD, read-out: Average of Cmax) was 109 ± 58 ng/mL, the Tmax (30 mg, Cohort B healthy, 30 mg QD oral, Day 1, mean ± SD, read-out: Average of Tmax) was 54 ± 30 min and the Vd/F (30 mg, Cohort B healthy, 30 mg QD oral, Day 1, mean ± SD, read-out: Average of Vd/F) was 349 ± 175 L. It also gave an AUC(0-t) (30 mg, Cohort B healthy, 30 mg QD oral, Day 7, mean ± SD, read-out: Average of AUC24 h) of 236 ± 186 ng·h/mL, a Cmax (30 mg, Cohort B healthy, 30 mg QD oral, Day 7, mean ± SD, read-out: Average of Cmax) of 120 ± 79 ng/mL and a Tmax (30 mg, Cohort B healthy, 30 mg QD oral, Day 7, mean ± SD, read-out: Average of Tmax) of 36 ± 12 min. It also gave a Vd/F (30 mg, Cohort B healthy, 30 mg QD oral, Day 7, mean ± SD, read-out: Average of Vd/F) of 391 ± 235 L, an AUC(0-t) (30 mg, Table 11: Cohort B, 30 mg QD oral, Day 1, mean ± S.D., read-out: AUClast) of 328 ± 213 ng·h/mL and a Cmax (30 mg, Table 11: Cohort B, 30 mg QD oral, Day 1, mean ± S.D., read-out: Cmax) of 109 ± 58 ng/mL. For the same compound, the Tmax (30 mg, Table 11: Cohort B, 30 mg QD oral, Day 1, mean ± S.D., read-out: Tmax) was 54 ± 30 min, the Vd/F (30 mg, Table 11: Cohort B, 30 mg QD oral, Day 1, mean ± S.D., read-out: Vd/F) was 349 ± 175 L and the Tmax (30 mg, Table 12: Cohort B, 30 mg QD oral, Day 7, individual subjects, read-out: Tmax) was 30 min. For the same compound, the AUC(0-t) (30 mg, Table 12: Cohort B, 30 mg QD oral, Day 7, mean ± S.D., read-out: AUClast) was 236 ± 186 ng·h/mL, the Cmax (30 mg, Table 12: Cohort B, 30 mg QD oral, Day 7, mean ± S.D., read-out: Cmax) was 120 ± 79 ng/mL and the Tmax (30 mg, Table 12: Cohort B, 30 mg QD oral, Day 7, mean ± S.D., read-out: Tmax) was 36 ± 12 min. The Vd/F (30 mg, Table 12: Cohort B, 30 mg QD oral, Day 7, mean ± S.D., read-out: Vd/F) was 391 ± 234 L, the AUC(0-t) (30 mg, Table 13: Cohort B Fed, 30 mg oral, fed state, mean ± S.D., read-out: AUClast) was 390 ± 280 ng·h/mL and the Cmax (30 mg, Table 13: Cohort B Fed, 30 mg oral, fed state, mean ± S.D., read-out: Cmax) was 60 ± 37 ng/mL. The Tmax (30 mg, Table 13: Cohort B Fed, 30 mg oral, fed state, mean ± S.D., read-out: Tmax) was 144 ± 108 min, the Vd/F (30 mg, Table 13: Cohort B Fed, 30 mg oral, fed state, mean ± S.D., read-out: Vd/F) was 699 ± 424 L and the AUC(0-t) (90 mg, Cohort C healthy, 90 mg QD oral, Day 1, mean ± SD, read-out: Average of AUC24 h) was 1270 ± 509 ng·h/mL. It also gave a Cmax (90 mg, Cohort C healthy, 90 mg QD oral, Day 1, mean ± SD, read-out: Average of Cmax) of 400 ± 202 ng/mL, a Tmax (90 mg, Cohort C healthy, 90 mg QD oral, Day 1, mean ± SD, read-out: Average of Tmax) of 138 ± 132 min and a Vd/F (90 mg, Cohort C healthy, 90 mg QD oral, Day 1, mean ± SD, read-out: Average of Vd/F) of 337 ± 316 L. It also gave an AUC(0-t) (90 mg, Cohort C healthy, 90 mg QD oral, Day 7, mean ± SD, read-out: Average of AUC24 h) of 741 ± 357 ng·h/mL, a Cmax (90 mg, Cohort C healthy, 90 mg QD oral, Day 7, mean ± SD, read-out: Average of Cmax) of 189 ± 95 ng/mL and a Tmax (90 mg, Cohort C healthy, 90 mg QD oral, Day 7, mean ± SD, read-out: Average of Tmax) of 78 ± 60 min. For the same compound, the AUC(0-t) (90 mg, Cohort D AD patients, 90 mg QD oral, Day 1, mean ± SD, read-out: Average of AUC24 h) was 1560 ± 605 ng·h/mL, the Cmax (90 mg, Cohort D AD patients, 90 mg QD oral, Day 1, mean ± SD, read-out: Average of Cmax) was 478 ± 154 ng/mL and the Tmax (90 mg, Cohort D AD patients, 90 mg QD oral, Day 1, mean ± SD, read-out: Average of Tmax) was 66 ± 36 min. For the same compound, the Vd/F (90 mg, Cohort D AD patients, 90 mg QD oral, Day 1, mean ± SD, read-out: Average of Vd/F) was 211 ± 90 L and the AUC(0-t) (90 mg, Cohort D AD patients, 90 mg QD oral, Day 7, mean ± SD, read-out: Average of AUC24 h) was 806 ± 196 ng·h/mL.
